Laboratory results: US20220098215A1, “DUOCARMYCIN ANALOGUES” (AUCKLAND UNISERVICES LIMITED, priority 2019, published 2022)
Entries after “also recorded” stand apart in the source; their conditions may differ. Like-named read-outs stand apart in the source and are kept apart here.

Tests used:
[1] = Calculated lipophilicity, ChemDraw Professional; details: Table 3; difference CBI minus MBO, same side chain
Description: The lipophilicity was calculated for the representative compounds of the invention using the ChemDraw Professional v.17.0.0 software package (Perkin Elmer Informatics Inc).
(§1) Lipophilicity of small molecule compounds can be calculated in many different ways (reviewed for example in J. Pharm. Sci. (2009) 98, 861). To complement the data provided in Example 6 the calculated lipophilicity of several compounds of the present invention was compared to that of the seco-CBI analogues bearing the same minor groove binding side chain, using four different software packages, i.e. ChemDraw Professional (Perkin Elmer Informatics Inc) as in Example 6, ACD/log P (Advanced Chemistry Development), XLOGP3 (Shanghai Institute of Organic Chemistry), and MLOGP (Talete SRL, Milano, Italy), with the last three accessed via SwissADME (http://swissadme.ch/, Swiss Institute of Bioinformatics). The structures of the compounds are shown (where DNA binding units A, D, E and F, when attached to the 2-methylbenzoxazole alkylating subunit, represent compounds 23, 59, 66 and 74, respectively) and the calculated log P values are collected in Table 3.

[2] = Calculated lipophilicity, ACD/log P; details: Table 3; difference CBI minus MBO, same side chain
From the text: as §1

cervical carcinoma SiHa = test: Cytotoxicity: inhibition of proliferation, sulforhodamine B staining; format: cell-based, human; details: for IC50: Homo sapiens
Description: (§2) The cytotoxicity of the payloads of the invention was determined by measuring the inhibition of proliferation of two human tumour cell lines, the cervical carcinoma SiHa, and the ovarian carcinoma SKOV3. Log-phase monolayers were exposed continuously to the payloads for 5 days in 96-well plates, followed by sulforhodamine B staining. The IC50 was determined by interpolation as the drug concentration required to inhibit cell density to 50% of that of the untreated controls on the same plate. Every plate contained the reference compound seco-CBI-TMI as an internal control.
(§3) The cytotoxicity of the payloads of the invention was determined by measuring the inhibition of proliferation of two human tumour cell lines, the cervical carcinoma SiHa, and the ovarian carcinoma SKOV3, following the general procedure described in Example 7. In the new determinations the stock solution of payload in DMSO was diluted in series prior to addition to the cell-containing wells of the 96-well plate. The cytotoxicity determinations were repeated several times (n=3-7 depending on compound and cell line) and the results are collected in Table 4.

ovarian carcinoma SKOV3 = test: as above; format: cell-based, human; details: for IC50: Homo sapiens; for differential cytotoxic potency between enantiomers 82 and 83: SKOV3
Description: as §2, §3

[3] = Aqueous stability in neutral buffer (LC-MS / HPLC); format: physicochemical; details: 4 μM in Tris buffer (pH 7.4) containing 10% DMF at 37° C., monitored over 300-500 min
Description: The aqueous stability of 23 and reference compound seco-CBI-TMI was investigated by LC-MS analysis. Samples containing the payloads at a concentration of 4 μM in Tris buffer (pH 7.4) containing 10% DMF at 37° C. were monitored at regular intervals over 300-500 min.
The aqueous stability of compounds 52, 59 and 66 was investigated by HPLC analysis. The conditions were the same as those described in Example 8, i.e. samples contained the payloads at a concentration of 4 μM in Tris buffer (pH 7.4) containing 10% DMF at 37° C. In this experiment the solutions were monitored at hourly intervals over 8 h.

[4] = Bioorg. Med. Chem. Lett. (2010) 20, 1854; cited from earlier work
[5] = SK-OV-3, 120 h, Example 7, Table 2, continuous exposure 5 days, 96-well plates, read-out: IC50 SKOV3
[6] = SK-OV-3, Example 25, Table 4, DMSO stock diluted in series before addition, n=3-7, read-out: IC50 SKOV3 Average

Cc1nc2c3c(cc(O)c2o1)N(C(=O)OC(C)(C)C)CC3CCl (stereo not shown)
melting point: 234 to 238 °C

Cc1nc2c3c(cc(OCc4ccccc4)c2o1)N(C(=O)OC(C)(C)C)CC3CCl (stereo not shown)
melting point: 142 to 143 °C

COc1cc2cc(C(=O)N3CC(CCl)c4c3cc(OCc3ccccc3)c3oc(C)nc43)[nH]c2c(OC)c1OC (stereo not shown)
melting point: 225 to 227 °C

COc1cc2cc(C(=O)N3CC(CCl)c4c3cc(O)c3oc(C)nc43)[nH]c2c(OC)c1OC (stereo not shown) [Compound 23, (8-(Chloromethyl)-4-hydroxy-2-methyl-7,8-dihydro-6H-oxazolo[4,5-e]indol-6-yl)(5,6,7-trimethoxy-1H-indol-2-yl)methanone]
LogP ChemDraw Δ [1]: 1.48
LogP ACD Δ [2]: 1.67
IC50 (cervical carcinoma SiHa; 120 h, read-out: IC50 SiHa): 0.28 nM
IC50 (cervical carcinoma SiHa; read-out: IC50 SiHa Average): 0.18 nM
IC50 (ovarian carcinoma SKOV3; [5]): 0.54 nM
IC50 (ovarian carcinoma SKOV3; [6]): 0.32 nM
aqueous stability (LC-MS) [3]: not stable under these conditions and was rapidly converted to a variety of products

Cc1nc2c3c(cc(O)c2o1)N(C(=O)c1cc2cc(NC(=O)c4cc5cc(OCCN(C)C)ccc5[nH]4)ccc2[nH]1)CC3CCl (stereo not shown) [Compound 53, N-(2-(8-(Chloromethyl)-4-hydroxy-2-methyl-7,8-dihydro-6H-oxazolo[4,5-e]indole-6-carbonyl)-1H-indol-5-yl)-5-(2-(dimethylamino)ethoxy)-1H-indole-2-carboxamide]
IC50 (cervical carcinoma SiHa; 120 h, read-out: IC50 SiHa): 7.2 nM
IC50 (cervical carcinoma SiHa; read-out: IC50 SiHa Average): 2.9 nM
IC50 (ovarian carcinoma SKOV3; [5]): 9 nM
IC50 (ovarian carcinoma SKOV3; [6]): 4.2 nM

COc1ccc(/C=C/C(=O)N2CC(CCl)c3c2cc(O)c2oc(C)nc32)cc1O (stereo not shown) [Compound 59, (E)-1-(8-(Chloromethyl)-4-hydroxy-2-methyl-7,8-dihydro-6H-oxazolo[4,5-e]indol-6-yl)-3-(3-hydroxy-4-methoxyphenyl) prop-2-en-1-one]
LogP ChemDraw Δ [1]: 1.48
LogP ACD Δ [2]: 1.61
IC50 (cervical carcinoma SiHa; read-out: IC50 SiHa Average): 0.62 nM
IC50 (ovarian carcinoma SKOV3; [6]): 0.5 nM

COc1ccc(/C=C/C(=O)Nc2ccc3[nH]c(C(=O)N4CC(CCl)c5c4cc(O)c4oc(C)nc54)cc3c2)cc1 (stereo not shown) [Compound 63, (E)-N-(2-(8-(Chloromethyl)-4-hydroxy-2-methyl-7,8-dihydro-6H-oxazolo[4,5-e]indole-6-carbonyl)-1H-indol-5-yl)-3-(4-methoxyphenyl)acrylamide]
IC50 (cervical carcinoma SiHa; read-out: IC50 SiHa Average): 0.69 nM
IC50 (ovarian carcinoma SKOV3; [6]): 0.61 nM

COc1ccc2sc(C(=O)N3CC(CCl)c4c3cc(O)c3oc(C)nc43)cc2c1 (stereo not shown) [Compound 65, (8-(Chloromethyl)-4-hydroxy-2-methyl-7,8-dihydro-6H-oxazolo[4,5-e]indol-6-yl)(5-methoxybenzo[b]thiophen-2-yl)methanone]
IC50 (cervical carcinoma SiHa; read-out: IC50 SiHa Average): 2.7 nM
IC50 (ovarian carcinoma SKOV3; [6]): 1.7 nM

COCCOc1ccc2[nH]c(C(=O)N3CC(CCl)c4c3cc(O)c3oc(C)nc43)cc2c1 (stereo not shown) [Compound 66, (8-(Chloromethyl)-4-hydroxy-2-methyl-7,8-dihydro-6H-oxazolo[4,5-e]indol-6-yl)(5-(2-methoxyethoxy)-1H-indol-2-yl)methanone]
LogP ChemDraw Δ [1]: 1.48
LogP ACD Δ [2]: 1.67
IC50 (cervical carcinoma SiHa; read-out: IC50 SiHa Average): 0.2 nM
IC50 (ovarian carcinoma SKOV3; [6]): 0.17 nM

CC(=O)Nc1cnc2[nH]c(C(=O)N3CC(CCl)c4c3cc(O)c3oc(C)nc43)cc2c1 (stereo not shown) [Compound 70, N-(2-(8-(Chloromethyl)-4-hydroxy-2-methyl-7,8-dihydro-6H-oxazolo[4,5-e]indole-6-carbonyl)-1H-pyrrolo[2,3-b]pyridin-5-yl)acetamide]
IC50 (cervical carcinoma SiHa; read-out: IC50 SiHa Average): > 20 nM
IC50 (ovarian carcinoma SKOV3; [6]): > 20 nM

CC(=O)Nc1ccc2nc(C(=O)N3CC(CCl)c4c3cc(O)c3oc(C)nc43)cn2c1 (stereo not shown) [Compound 74, N-(2-(8-(Chloromethyl)-4-hydroxy-2-methyl-7,8-dihydro-6H-oxazolo[4,5-e]indole-6-carbonyl)imidazo[1,2-a]pyridin-6-yl)acetamide]
LogP ChemDraw Δ [1]: 1.48
LogP ACD Δ [2]: 1.66
IC50 (cervical carcinoma SiHa; read-out: IC50 SiHa Average): 13 nM
IC50 (ovarian carcinoma SKOV3; [6]): 16.4 nM

COc1cc2cc(C(=O)N3C[C@@H](CCl)c4c3cc(O)c3oc(C)nc43)[nH]c2c(OC)c1OC [Compound 82, (S)-(8-(Chloromethyl)-4-hydroxy-2-methyl-7,8-dihydro-6H-oxazolo[4,5-e]indol-6-yl)(5,6,7-trimethoxy-1H-indol-2-yl)methanone]
differential cytotoxic potency between enantiomers 82 and 83 (cervical carcinoma SiHa): 93 fold
IC50 (cervical carcinoma SiHa; read-out: IC50 SiHa Average): 0.15 nM
IC50 (ovarian carcinoma SKOV3; [6]): 0.3 nM
differential cytotoxic potency between enantiomers 82 and 83 (ovarian carcinoma SKOV3): 110 fold

COc1cc2cc(C(=O)N3C[C@H](CCl)c4c3cc(O)c3oc(C)nc43)[nH]c2c(OC)c1OC [Compound 83, (R)-(8-(chloromethyl)-4-hydroxy-2-methyl-7,8-dihydro-6H-oxazolo[4,5-e]indol-6-yl)(5,6,7-trimethoxy-1H-indol-2-yl)methanone]
differential cytotoxic potency between enantiomers 82 and 83 (cervical carcinoma SiHa): 93 fold
IC50 (cervical carcinoma SiHa; read-out: IC50 SiHa Average): 14 nM
IC50 (ovarian carcinoma SKOV3; [6]): 33 nM
differential cytotoxic potency between enantiomers 82 and 83 (ovarian carcinoma SKOV3): 110 fold

COc1cc2cc(C(=O)N3CC(CCl)c4c3cc(O)c3ccccc43)[nH]c2c(OC)c1OC (stereo not shown) [Seco-CBI-TMI, reference compound]
IC50 (cervical carcinoma SiHa; 120 h, read-out: IC50 SiHa): 0.23 nM
IC50 (cervical carcinoma SiHa; read-out: IC50 SiHa Average): 0.16 nM
IC50 (ovarian carcinoma SKOV3; [5]): 0.58 nM
IC50 (ovarian carcinoma SKOV3; [6]): 0.27 nM
aqueous stability (LC-MS) [3]: clean conversion to the cyclopropyl form (CBI-TMI), which was stable under these conditions; also recorded: prolonged stability

COC(=O)c1nc2c(O)cc3c(c2o1)C(CCl)CN3C(=O)c1cc2cc(OC)c(OC)c(OC)c2[nH]1 (stereo not shown) [seco-COI-TMI]
cytotoxicity relative to reference compounds / CBI analogues [4]: several hundred fold less cytotoxic
